The values that follow come from paper PMC5485019 (2017).

For assay [1], the system named is FMycT (F-Myc-T) (DNA, G4) TTGAGGGTGGGTAGGGTGGGTAA
As to the kind of experiment: FRET melting. To be noted: 1 mM KCl, 99 mM LiCl, 10 mM Li cacodylate, 200 nM DNA.

The subject of assay [2] is F10T (DNA, hairpin, hexaethylene glycol (HEG) linker between nucleotides 10 and 11) TATAGCTATATATAGCTATA
As to the kind of experiment: FRET melting. To be noted: 10 mM KCl, 90 mM LiCl, 10 mM Li cacodylate, 200 nM DNA.

In assay [3] the test system is F21T (DNA, G4) GGGTTAGGGTTAGGGTTAGGG
As to the kind of experiment: FRET melting. To be noted: 10 mM Li cacodylate, 1 μM ligand, 200 nM DNA.

The subject of assay [4] is telo23 (DNA, G4) TAGGGTTAGGGTTAGGGTTAGGG
As to the kind of experiment: ITC. To be noted: K+ (100 mM potassium phosphate); pH 7.4, 25 °C (298 K); 15 µM DNA; bracket = 68.3 % confidence interval.

Assay [5] has the same test system. As to the kind of experiment: CD titration. To be noted: Na+ (100 mM sodium phosphate); pH 7.4 (main text 7.2); 4.22 µM DNA; antiparallel shifts towards hybrid.
The test system of assay [6] is F21T (DNA, G4) GGGTTAGGGTTAGGGTTAGGG
As to the kind of experiment: FRET melting. To be noted: 10 mM Li cacodylate, 200 nM DNA.

The test system of assay [7] is FMycT (F-Myc-T) (DNA, G4) TTGAGGGTGGGTAGGGTGGGTAA
As to the kind of experiment: FRET melting. To be noted: 1 mM KCl, 99 mM LiCl; 10 mM Li cacodylate; 1 μM ligand, 200 nM DNA.

Assay [8] has as its system F10T (DNA, hairpin, hexaethylene glycol (HEG, (-CH2CH2O-)6) linker between nucleotides 10 and 11) TATAGCTATATATAGCTATA
As to the kind of experiment: FRET melting. To be noted: 10 mM KCl, 90 mM LiCl; 10 mM Li cacodylate; 1 μM ligand, 200 nM DNA.

Setting [9] is: 10 mM KCl, 90 mM LiCl, 1 μM ligand.
The mark [10] stands for this setting: 100 mM NaCl, 1 μM ligand, no stabilization up to 10 μM.
Setting [11] is: 100 mM NaCl, no stabilization up to 10 μM.
The mark [12] stands for this setting: 1 µM ligand, no stabilization up to 10 µM.

With `CN(C)CCCN1C(=O)c2ccc3c4c(ccc(c24)C1=O)C(=O)N(CCCN(C)C)C3=O`, the ΔT max in assay [1] (1 μM ligand) is 3.9±0.2 °C; in assay [2] (1 μM ligand) it was 1.1±0.1 °C; in assay [3] (10 mM KCl, 90 mM LiCl), 2.3±0.5 °C; in assay [3] (100 mM NaCl) it was −1.5±0.2 °C.

For the molecule `CN1CCN(CCCN2C(=O)c3ccc4c5c(ccc(c35)C2=O)C(=O)N(CCCN2CCN(C)CC2)C4=O)CC1`, in assay [4], the K a is reported as 1.03 (0.865,1.23) × 10^6 M^-1. The binding entry in assay [5] is “yes”. Also, the ΔT max is 9.8±0.6 °C in assay [6] (setting [9]), −2.3±0.3 °C in assay [6] (setting [10]), 0.5±0.3 °C in assay [7] and 0.3±0.2 °C in assay [8].

Regarding `C[n+]1ccc(-c2c3nc(c(-c4cc[n+](C)cc4)c4ccc([nH]4)c(-c4cc[n+](C)cc4)c4nc(c(-c5cc[n+](C)cc5)c5ccc2[nH]5)C=C4)C=C3)cc1`, in assay [6] (setting [9]), the “∆Tmax” value was 27.4 ± 0.4 °C.

With `Cn1cc[n+](CCCN2C(=O)c3ccc4c5c(ccc(c35)C2=O)C(=O)N(CCC[n+]2ccn(C)c2)C4=O)c1`, the K a in assay [4] was 2.16 (1.85,2.52) × 10^6 M^-1. In addition, the ΔT max is 3.7±0.3 °C in assay [3] (10 mM KCl, 90 mM LiCl); −0.5±0.4 °C in assay [3] (100 mM NaCl); 1.8±0.8 °C in assay [7]; 0.1±0.1 °C in assay [8].

As for `Cn1cc[n+](CCN2C(=O)c3ccc4c5c(ccc(c35)C2=O)C(=O)N(CC[n+]2ccn(C)c2)C4=O)c1`, the ΔT max was 1.3±0.4 °C in assay [3] (10 mM KCl, 90 mM LiCl); −0.6±0.5 °C in assay [3] (setting [11]); 1±0.4 °C in assay [7]; 0.4±0.2 °C in assay [8].

With `Cn1cc[n+](C[C@H]2O[C@@H](OCCN3C(=O)c4ccc5c6c(ccc(c46)C3=O)C(=O)N(CCO[C@@H]3O[C@H](C[n+]4ccn(C)c4)[C@@H](O)[C@H](O)[C@H]3O)C5=O)[C@H](O)[C@@H](O)[C@@H]2O)c1`, the ΔT max in assay [3] (10 mM KCl, 90 mM LiCl) was 2.9±0.3 °C; in assay [3] (setting [11]), −1.5±0.4 °C; in assay [7], 0.9±0.7 °C; in assay [8], 0.1±0.2 °C.

On to `Cn1cc[n+](C[C@H]2O[C@H](OCCN3C(=O)c4ccc5c6c(ccc(c46)C3=O)C(=O)N(CCO[C@H]3O[C@H](C[n+]4ccn(C)c4)[C@@H](O)[C@H](O)[C@@H]3O)C5=O)[C@@H](O)[C@@H](O)[C@@H]2O)c1`, for which, in assay [4], the K a is 1.30 (1.02,1.64) × 10^6 M^-1. Further, the binding entry in assay [5] is “yes”. The ΔT max was 10.1±0.3 °C in assay [6] (setting [9]); −1.4±0.3 °C in assay [6] (setting [10]); −0.3±0.7 °C in assay [1] (1 µM ligand, 10.5 °C at 10 µM); −0.1±0.1 °C in assay [2] (1 µM ligand, 3.2 °C at 10 µM).

For the molecule `O=C1c2ccc3c4c(ccc(c24)C(=O)N1CCO[C@@H]1O[C@H](CO)[C@@H](O)[C@H](O)[C@H]1O)C(=O)N(CCO[C@@H]1O[C@H](CO)[C@@H](O)[C@H](O)[C@H]1O)C3=O`, the ΔT max in assay [6] (10 mM KCl, 90 mM LiCl, 1 µM ligand, no stabilization up to 10 µM) is 0.4±0.1 °C; in assay [1] (setting [12]) it was −0.3±0.4 °C; in assay [2] (setting [12]), 0.5±0.2 °C; in assay [3] (setting [11]), −0.1±0.5 °C.
